Reference: patent US20230152314A1, “LIPOCALIN-2 ASSAY FOR INTESTINAL ADAPTATION” (THE JOHNS HOPKINS UNIVERSITY, priority 2020, published 2023)
Entries after “also recorded” stand apart in the source; their conditions may differ.

Assays:
WT SBR mice = experiment: I3C (AHR agonist) supplementation in SBR mice: weight gain; type: in vivo, mouse; settings: WT SBR mice vs DMSO-treated control, postoperative days 3-7, p=0.04 at day 7
From the text: In one experiment, AHR agonists are studied in our SBR model. The purpose of this experiment is to study AHR activation via a dietary supplement, which has tremendous potential as a translational approach. Under our ACUC-approved protocol, we will perform a 75% SBR on the same four groups [n=12 mice in each group] of C57Bl/6J mice: WT, LCN2-/-, AHR-/- and AHR-/-LCN2-/-. Sham-operated WT, LCN2-/-, AHR-/- and AHR-/-LCN2-/- C57Bl/6J mice [n=12 mice in each group] will serve as controls. Mice will be randomized to receive either the AHR agonist, indole-3-carbinol […]) (Sigma, 17256, St Louis, Mo.) at a dose of 15-20 mg/kg, dissolved in DMSO, or DMSO alone mixed into the liquid diet. The rodent liquid diet containing […] will be maintained for the duration of the postoperative period. Control mice will receive DMSO only. Mice will be weighed daily. One week later, the mice will be anesthetized for tissue collection and analyses performed.

[1] = system: WT SBR mice (75% SBR model of short bowel syndrome); experiment: Rescue IL-22 therapy for SBR WT mice: body weight and villus length; type: in vivo, mouse
Procedure: Creation of a clinically relevant model of short bowel syndrome in the mouse. In our laboratory, we established the model previously described by Helmrath et al.^18 Briefly, the hair on the abdomen of the mouse was removed by depilatory creams, and the abdomen was scrubbed with three rounds of betadine, prior to making an incision. Through a 1.5 cm midline laparotomy, the small bowel was examined. The 75% SBR was performed by transecting 3 cm distal to the ligament of Treitz and 6 cm proximal to the cecum. The intervening proximal small bowel (approximately 18 cms) was removed. Intestinal continuity was restored with a primary end-to-end jejunoileal anastomosis using 8-0 Nylon suture. The sham operation (SHA) was performed by transecting the small bowel 6 cm proximal to the cecum and immediately creating a primary end-to-end ileoileal anastomosis. Subcutaneous closure was performed with a running absorbable 4-0 Vicryl suture. Cutaneous closure was completed by interrupted 4-0 silk sutures. All animals received 1 mL of saline subcutaneously before and immediately after procedure.
After surgery, mice were offered free access to water for the first 24 hours. Fresh rodent liquid diet was provided and body weight was measured daily. Bromodeoxyuridine (BrdU) (Invitrogen, 00-0103) was administered through intraperitoneal injection (ip) 24 hours before euthanasia. Intestinal permeability was evaluated with FITC-Dextran intestinal permeability assay as described below. Serum, intestinal issue, liver, and cecal content were collected after euthanasia.
Morphometric Analysis. The jejunum and ileum were fixed in 10% neutral buffered formalin for 24 hours. […] Villus length in jejunum and ileum was measured under light microscopy (EVOS FL Auto Imaging System). At least 30 well-oriented intact villi were counted per mouse.
Rescue IL-22 Therapy for SBR WT Mice. […] The relative abundance of Proteobacteria, Bacteroidetes, Firmicutes, Lactobacillus and Enterobacteriaceae of fecal microbiome and Reg3b and Reg3g genes in the intestine were assessed by q-PCR.

[2] = system: Reg3b, Reg3g and Tnf-α genes in the intestine; experiment: Rescue IL-22 therapy: transcriptional levels of intestinal genes by q-PCR; type: in vivo, mouse; settings: WT SBR mice
Procedure: (§1) Rescue IL-22 Therapy for SBR WT Mice. Following a 75% SBR, WT mice were treated daily for six days via intraperitoneal injections with either 100 μL PBS as control or 100 μL PBS containing 4 μg rmIL-22 (PeproTECH, 210-22) as treatment. At post-operative day (POD) 7, intestinal tissue and cecal contents were collected after euthanasia. The relative abundance of Proteobacteria, Bacteroidetes, Firmicutes, Lactobacillus and Enterobacteriaceae of fecal microbiome and Reg3b and Reg3g genes in the intestine were assessed by q-PCR.
RNA Extraction and Reverse Transcription. Total RNA from tissue was extracted according to the manufacturer's instructions (QIAGEN, RNeasy Mini Kit, 74106). Genomic DNA was eliminated from RNA, and total RNA (0.5 μg) was reverse transcribed to cDNA with QuantiTect Reverse Transcription Kit according to the manufacturer's protocol (QIAGEN, 205311, Germantown, Md., USA).
(§2) Quantitative real-time PCR. Gene quantification was carried out with iTap Universal SYBR Green Supermix (Bio-rad, 172-5124, Hercules, Calif., USA) on a CFX96 Touch Real-time PCR system (Bio-rad) according to the manufacturer's instructions and calculated with 2^−ΔΔCT method. Thermal cycling was performed at 95° C. for 5 min, followed by 40 cycles at 95° C. for 15 s, 60° C. 10s, 72° C. for 30 s. Primers for transcriptional levels of Lcn2, IL-6.

[3] = system: Proteobacteria, Bacteroidetes, Firmicutes of fecal microbiome; experiment: Rescue IL-22 therapy: relative abundance of fecal microbiome groups by q-PCR; type: in vivo, mouse; settings: WT SBR mice, POD 7, q-PCR
Procedure: as §1, §2

Th22 cells = experiment: Th22 cell differentiation with and without LCN2, IL-22 ELISA of supernatant; type: cell-based, mouse; settings: rmLCN2 1 ug/mL, 5 days
Procedure: Naïve CD4^+ T Lymphocytes Isolation and Th22 cells Differentiation. We isolated naïve CD4+ T cells as previously described by Bedoya S K et al.^22 Briefly, splenic tissue was removed from 6-week old C57BL/6J male mice and ground into a single cell suspension under a sterile hood. Red blood cells (RBC) were removed by using ammonium-chloride-potassium (ACK) lysing buffer (Quality Biological, 118-156-101, Gaithersburg, Md., USA) at RT for 3 minutes. Naïve CD4+ T cells were isolated from total splenocyte by magnetic activated cell sorting (MACS) based on positive selection using CD4 (L3T4) MicroBeads (Miltenyi Biotec, 130-117-043, Bergisch-Gladbach, Germany) according to the manufacturer's instructions. The purity of naive CD4+ T cells was more than 97%, as measured by flow cytometry.
For Th22 cell differentiation, CD4+ T cells were stimulated in complete media (RPMI 1640 with 2 mM L-glutamine, 10% FBS, […] 1-ME, 100 U/ml penicillin-streptomycin) with plate-bound anti-CD3ε (Clone 145-2C11, 1 ug/mL, BD; 550275) and soluble anti-CD28 (Clone 37.51, 2 ug/ml, BD, 553295) for 5 days under polarizing condition for Th22 cells (IL-6 20 ng/mL, IL-β 10 ng/mL, TNF-α 10 ng/mL)^23 with and without mouse recombinant (rm) LCN2 (1 ug/mL, R&D, 1857-LC-050). Cell supernatant was collected for IL-22 ELISA analysis (Invitrogen, 88-7422-22) according to the manufacturer's instructions.

[4] = POD 7, compared to PBS-treated group
[5] = jejunum and colon, especially in the colon

Molecule: OCc1c[nH]c2ccccc12 [I3C, indole-3-carbinol]
- weight gain following SBR (WT SBR mice): increases; also recorded: significant increase

Molecule: rmIL-22: recombinant mouse IL-22 (PeproTECH, 210-22), given intraperitoneally in PBS
- body weight lost ([1]; POD 7, 4 μg rmIL-22 ip daily for six days): 7.5%
- length of villi in ileum [1, 4]: no difference
- length of villi in jejunum [1, 4]: significantly longer
- Reg3b transcriptional level [2, 5]: robust increase
- Reg3g transcriptional level [2, 5]: robust increase
- transcriptional levels of Tnf-α ([2]; jejunum, inflammation): increased
- relative abundance of Bacteroidetes [3]: increased
- relative abundance of Firmicutes [3]: increased
- relative abundance of Proteobacteria [3]: decreased

B1: LCN2: mouse recombinant (rm) LCN2 (R&D, 1857-LC-050) added to Th22 polarizing culture (protein, UniProt P11672 21-200, looked up)
Neutrophil …: QDSTQNLIPAPSLLTVPLQPDFRSDQFRGRWYVVGLAGNAVQKKTEGSFTMYSTIYELQENNSYNVTSILVRDQDQGCRYWIRTFVPSSRAGQFTLGNMHRYPQVQSYNVQVATTDYNQFAMVFFRKTSENKQYFKITLYGRTKELSPELKERFTRFAKSLGLKDDNIIFSVPTDQCIDN
- levels of IL-22 protein expression from Th22 cells (Th22 cells): significantly decreased
